Data on two compounds can be found in patent publication US20230092895A1, “TANDEM CD19 CAR-BASED COMPOSITIONS AND METHODS FOR IMMUNOTHERAPY” (Obsidian Therapeutics, Inc., priority 2019, published 2023).

Where two headings read alike, the source gives them in different places.

The conditions of series [1]: human, cited from earlier work.
Another series relates to HCT-116 cells. Particulars: 24 hours; for IL15Ra mean fluorescent intensity (MFI): HCT-116 cells stably expressing OT-001111. On the procedure:
HCT-116 cells stably expressing the OT-001111 (OT-IL15-009) cassette were incubated with 0 to 250 μM TMP ligand (or DMSO) for 24 hours. Membrane bound IL15-IL15Ra levels were assessed using flow cytometry detection of IL15Ra.

The subject of series [2] is GFP positive (IL12 negative) T cells. Nature of the series: In vivo T cell phenotype: GFP positive cells co-transferred with CD19 CAR-IL12 cells, FACS markers, plasma IL12. More on the design: species or system NSG mice. As to the method: IL12-transduced T cells have a Th1-skewed phenotype in vitro, i.e. produce IFN gamma). To assess phenotypic effects of IL12 in vivo, GFP positive (IL12 negative) cells were generated and co-transferred with CD19 CAR-IL12 transduced cells or CD19 alone or IL12 alone cells. Nalm 6 tumor bearing NSG mice were injected with 8 million GFP positive cells, in addition to CD19 CAR-IL12 cells or their corresponding monocistronic constructs. The groups utilized in this study included, 1e^6 empty vector expressing T cells plus 8e^6 GFP positive cells, 1e^6 OT-001407 plus 8e^6 GFP positive cells, 0.1 e^6 OT-001356 plus 8e^6 GFP positive cells, 1e^6 OT-001356 plus 8e^6 GFP positive cells, 0.1e^6 OT-001357 plus 8e^6 GFP positive cells, 1e^6 OT-001357 plus 8e^6 GFP positive cells, and 1e^6 OT-001442 plus 8e^6 GFP positive cells.
Animals were bled on day 3, day 5, day 7 and euthanized at day 12. Blood, spleen, and bone marrow were collected for analysis of T cell number and CD8 frequency. Phenotypic T cell markers such as Granzyme, Tbet, pSTAT4, CD25, and ICOS were analyzed in the GFP positive cells using FACS. […] By day 12, post transfer, the levels of Granzyme B, Tbet, pSTAT4, CD25 and ICOS levels increased in the blood of the mice injected with the CD19 CAR-IL12 tandem constructs. ANOVA test for significance was p<0.0001 for all markers. […]

As for `COc1cc(Cc2cnc(N)nc2N)cc(OC)c1OC` [TMP, Trimethoprim], the “TMP maximum peak levels” value in series [1] (150 mg/m2 IV every 8 hours) was 17 to 34 µM. Besides, in series [1] (80-160 mg BID PO), the “TMP steady state levels” value is 1 to 6 µM. Also, the “TMP concentration resulting in IL15Ra MFI levels above DMSO controls” value in the series on HCT-116 cells (HCT-116 stably expressing OT-001111) is 0.0032 µM. For the same compound, the “IL15Ra mean fluorescent intensity (MFI)” value with HCT-116 cells (TMP 0.00064 μM) came to 304; with HCT-116 cells (TMP 0.0032 μM), 469; in the series with HCT-116 cells (TMP 0.016 μM), 666; with HCT-116 cells (TMP 0.08 μM), 769; in the series on HCT-116 cells (TMP 0.4 μM), 1001; in the series on HCT-116 cells (TMP 2 μM), 1104. Besides, the results for the “IL15Ra mean fluorescent intensity (MFI)” value with HCT-116 cells (TMP 10 μM), in the series with HCT-116 cells (TMP 50 μM) and in the series on HCT-116 cells (TMP 250 μM) were 1204, 1344 and 1576, respectively.
On to “IL12: heterodimeric protein of two subunits (p35, p40); cytokine”, for which the “EC 50 of IL12 in plasma” value in series [2] (mouse, in vivo) was approximately 0.1 ng/mL. In addition, the “level of IL12 sufficient to induce phenotypic changes” value in series [2] (plasma, markers and IFN gamma) was determined as 200 pg/mL.
